Assay results reported in publication PMC8284461, “Piperidine-4-Carboxamides Target DNA Gyrase in Mycobacterium abscessus” (Antimicrobial Agents and Chemotherapy, 2021).
≈ marks a conversion by molar mass, not a printed value.

Experiments:
[1] = system: M. abscessus subsp. abscessus ATCC 19977; assay: MIC, broth microdilution; assay type: cell-based, Mycobacterium abscessus; settings: abscessus ATCC 19977 wild type, 90% growth inhibition, 3 days
Protocol: (§1) MIC was determined using the broth microdilution method in 96-well plates as described previously ([47]). Briefly, a 10-point 2-fold serial dilution of compounds was performed in 96-well plates (Costar 3370; Corning, USA) starting at twice the desired highest concentration. […] One hundred microliters of the bacterial suspension was seeded onto the 96-well plates containing 100 μl of the serially diluted compounds to give a final volume of 200 μl in each well with the final OD600 of 0.005. The plates were sealed with parafilm, placed onto wet paper towels in a lock-lock box and incubated for 3 days at 37°C with orbital shaking at 90 rpm. […] Absorbance values at day 3 were subtracted from the day 0 readout. Percent growth inhibition was calculated by dividing the absolute absorbance value of treated cells with untreated control and multiplying by 100. CLR was included in all MIC experiments as a positive control to monitor assay reproducibility. MIC was defined as 90% of growth inhibition relative to untreated controls.

[2] = system: M. abscessus subsp. abscessus Bamboo; assay: MIC, broth microdilution; assay type: cell-based, Mycobacterium abscessus; settings: abscessus Bamboo wild type, 90% growth inhibition, 3 days
Protocol: as §1

[3] = system: M. abscessus subsp. abscessus K21; assay: MIC, broth microdilution; assay type: cell-based, Mycobacterium abscessus; settings: Mycobacteroides abscessus, 72 h, 90% growth inhibition, 3 days
Protocol: as §1

[4] = system: M. abscessus subsp. abscessus M199; assay: MIC, broth microdilution; assay type: cell-based, Mycobacterium abscessus; settings: Mycobacteroides abscessus, 72 h, 90% growth inhibition, 3 days
Protocol: as §1

[5] = system: M. abscessus subsp. abscessus M337; assay: MIC, broth microdilution; assay type: cell-based, Mycobacterium abscessus; settings: Mycobacteroides abscessus, 72 h, 90% growth inhibition, 3 days
Protocol: as §1

[6] = system: M. abscessus subsp. abscessus M404; assay: MIC, broth microdilution; assay type: cell-based, Mycobacterium abscessus; settings: Mycobacteroides abscessus, 72 h, 90% growth inhibition, 3 days
Protocol: as §1

[7] = system: M. abscessus subsp. abscessus M421; assay: MIC, broth microdilution; assay type: cell-based, Mycobacterium abscessus; settings: Mycobacteroides abscessus, 72 h, 90% growth inhibition, 3 days
Protocol: as §1

[8] = system: M. abscessus subsp. abscessus M9; assay: MIC, broth microdilution; assay type: cell-based, Mycobacterium abscessus; settings: Mycobacteroides abscessus, 72 h, 90% growth inhibition, 3 days
Protocol: as §1

[9] = system: M. abscessus subsp. bolletii CCUG 50184T; assay: MIC, broth microdilution; assay type: cell-based, Mycobacterium abscessus; settings: Mycobacteroides abscessus, 72 h, 90% growth inhibition, 3 days
Protocol: as §1

[10] = system: M. abscessus subsp. bolletii M232; assay: MIC, broth microdilution; assay type: cell-based, Mycobacterium abscessus; settings: Mycobacteroides abscessus, 72 h, 90% growth inhibition, 3 days
Protocol: as §1

[11] = system: M. abscessus subsp. bolletii M506; assay: MIC, broth microdilution; assay type: cell-based, Mycobacterium abscessus; settings: Mycobacteroides abscessus, 72 h, 90% growth inhibition, 3 days
Protocol: as §1

[12] = system: M. abscessus subsp. massiliense CCUG 48898T; assay: MIC, broth microdilution; assay type: cell-based, Mycobacterium abscessus; settings: Mycobacteroides abscessus, 72 h, 90% growth inhibition, 3 days
Protocol: as §1

[13] = system: M. abscessus subsp. massiliense M111; assay: MIC, broth microdilution; assay type: cell-based, Mycobacterium abscessus; settings: Mycobacteroides abscessus, 72 h, 90% growth inhibition, 3 days
Protocol: as §1

[14] = system: M. abscessus subsp. abscessus Bamboo 844^r-2 (GyrA D91N); assay: MIC, resistant mutant; assay type: cell-based, Mycobacterium abscessus; settings: Mycobacteroides abscessus
[15] = system: M. abscessus subsp. abscessus Bamboo 844^r-3 (GyrB S473W); assay: MIC, resistant mutant; assay type: cell-based, Mycobacterium abscessus; settings: Mycobacteroides abscessus
[16] = system: M. abscessus subsp. abscessus ATCC 19977 844-TMF^r-4 (GyrB M474I); assay: MIC, resistant mutant; assay type: cell-based, Mycobacterium abscessus; settings: Mycobacteroides abscessus, ATCC19977
[17] = system: M. abscessus subsp. abscessus ATCC 19977 MXF^r-1 (GyrA D96Y); assay: MIC, resistant mutant; assay type: cell-based, Mycobacterium abscessus; settings: Mycobacteroides abscessus, ATCC19977
[18] = system: M. abscessus subsp. abscessus ATCC 19977 MXF^r-2 (GyrA D96N); assay: MIC, resistant mutant; assay type: cell-based, Mycobacterium abscessus; settings: Mycobacteroides abscessus, ATCC19977
[19] = system: M. abscessus subsp. abscessus ATCC 19977 MXF^r-3 (GyrA D96G); assay: MIC, resistant mutant; assay type: cell-based, Mycobacterium abscessus; settings: Mycobacteroides abscessus, ATCC19977
[20] = target: recombinant M. abscessus wild-type DNA gyrase (Mycobacteroides abscessus, UniProt B1ME45+B1ME58); assay: biochemical; parameters: species or system Mycobacterium abscessus; settings: wild-type DNA gyrase, up to 50 μM
[21] = system: M. abscessus subsp. abscessus ATCC 19977; parameters: method as in PMID 19171799; settings: abscessus ATCC 19977, erm(41) T28; inducible resistance by sequevar; cited from earlier work
[22] = system: M. abscessus subsp. bolletii CCUG 50184T; parameters: method as in PMID 19171799; settings: erm(41) T28; cited from earlier work
[23] = system: M. abscessus subsp. massiliense CCUG 48898T; parameters: method as in PMID 19171799; settings: erm(41) deletion; cited from earlier work
[24] = system: M. abscessus subsp. abscessus Bamboo; parameters: method as in PMID 19171799; settings: erm(41) C28; cited from earlier work
[25] = system: M. abscessus subsp. abscessus K21; parameters: method as in PMID 19171799; settings: abscessus K21, erm(41) C28; cited from earlier work
[26] = system: M. abscessus subsp. abscessus M9; parameters: method as in PMID 19171799; settings: abscessus M9, erm(41) T28; cited from earlier work
[27] = system: M. abscessus subsp. abscessus M199; parameters: method as in PMID 19171799; settings: abscessus M199, erm(41) T28; cited from earlier work
[28] = system: M. abscessus subsp. abscessus M337; parameters: method as in PMID 19171799; settings: abscessus M337, erm(41) T28; cited from earlier work
[29] = system: M. abscessus subsp. abscessus M404; parameters: method as in PMID 19171799; settings: abscessus M404, erm(41) C28; cited from earlier work
[30] = system: M. abscessus subsp. abscessus M421; parameters: method as in PMID 19171799; settings: abscessus M421, erm(41) T28; cited from earlier work
[31] = system: M. abscessus subsp. bolletii M232; parameters: method as in PMID 19171799; settings: bolletii M232, erm(41) T28; cited from earlier work
[32] = system: M. abscessus subsp. bolletii M506; parameters: method as in PMID 19171799; settings: bolletii M506, erm(41) C28; cited from earlier work
[33] = system: M. abscessus subsp. massiliense M111; parameters: method as in PMID 19171799; settings: massiliense M111, erm(41) deletion; cited from earlier work
[34] = Mycobacteroides abscessus, ATCC19977, 72 h
[35] = Mycobacteroides abscessus, 72 h

Sequence of recombinant M. abscessus wild-type DNA gyrase (B1ME58 entry or part of it): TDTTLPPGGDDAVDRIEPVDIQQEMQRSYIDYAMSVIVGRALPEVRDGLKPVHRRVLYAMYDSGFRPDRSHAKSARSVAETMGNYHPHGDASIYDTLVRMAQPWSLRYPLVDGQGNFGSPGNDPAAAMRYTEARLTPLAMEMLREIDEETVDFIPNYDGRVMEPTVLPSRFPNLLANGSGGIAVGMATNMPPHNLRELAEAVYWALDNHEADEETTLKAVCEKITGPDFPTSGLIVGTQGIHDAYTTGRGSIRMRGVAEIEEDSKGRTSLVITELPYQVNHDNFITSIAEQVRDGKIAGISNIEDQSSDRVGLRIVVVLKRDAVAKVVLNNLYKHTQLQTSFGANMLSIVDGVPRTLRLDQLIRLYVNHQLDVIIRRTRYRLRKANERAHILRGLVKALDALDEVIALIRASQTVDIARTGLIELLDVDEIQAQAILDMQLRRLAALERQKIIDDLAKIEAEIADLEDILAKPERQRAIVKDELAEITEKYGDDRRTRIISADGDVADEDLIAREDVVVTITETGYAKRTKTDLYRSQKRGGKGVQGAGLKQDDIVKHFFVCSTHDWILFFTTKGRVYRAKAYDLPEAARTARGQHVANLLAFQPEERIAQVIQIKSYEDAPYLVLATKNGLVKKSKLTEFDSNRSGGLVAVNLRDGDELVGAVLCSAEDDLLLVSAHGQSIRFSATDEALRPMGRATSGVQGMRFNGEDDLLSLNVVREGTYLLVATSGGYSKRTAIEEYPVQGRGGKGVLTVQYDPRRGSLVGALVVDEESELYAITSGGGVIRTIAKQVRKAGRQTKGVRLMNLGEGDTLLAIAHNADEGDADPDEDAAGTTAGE
Sequence of recombinant M. abscessus wild-type DNA gyrase (B1ME45 entry or part of it): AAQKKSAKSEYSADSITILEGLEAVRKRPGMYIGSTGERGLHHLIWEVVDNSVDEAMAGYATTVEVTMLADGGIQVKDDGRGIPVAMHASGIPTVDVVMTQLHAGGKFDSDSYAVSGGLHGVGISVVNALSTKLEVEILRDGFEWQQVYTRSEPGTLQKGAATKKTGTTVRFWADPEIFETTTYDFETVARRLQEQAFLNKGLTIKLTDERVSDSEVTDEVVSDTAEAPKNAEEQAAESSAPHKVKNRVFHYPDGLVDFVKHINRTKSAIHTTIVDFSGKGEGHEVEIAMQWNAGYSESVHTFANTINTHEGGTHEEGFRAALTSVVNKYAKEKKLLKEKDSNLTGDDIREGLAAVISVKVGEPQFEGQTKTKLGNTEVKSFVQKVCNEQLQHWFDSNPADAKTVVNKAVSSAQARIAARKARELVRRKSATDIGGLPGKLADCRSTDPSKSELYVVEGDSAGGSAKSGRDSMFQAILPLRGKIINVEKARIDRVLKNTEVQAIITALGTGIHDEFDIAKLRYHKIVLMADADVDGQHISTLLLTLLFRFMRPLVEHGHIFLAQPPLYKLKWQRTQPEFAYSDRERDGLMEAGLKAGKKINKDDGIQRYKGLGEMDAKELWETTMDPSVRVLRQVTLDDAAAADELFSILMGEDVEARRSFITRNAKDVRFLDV

Row | Compound | MIC [1, 34] [µM] | MIC [2, 35] [µM] | MIC [3] [µM] | MIC [4] [µM] | MIC [5] [µM] | MIC [6] [µM] | MIC [7] [µM] | MIC [8] [µM] | MIC [9] [µM] | MIC [10] [µM] | MIC [11] [µM] | MIC [12] [µM] | MIC [13] [µM] | MIC [14] [µM] | MIC [15] [µM] | MIC [16] [µM] | MIC [17] [µM] | MIC [18] [µM] | MIC [19] [µM] | also measured
1 | CC[C@H]1OC(=O)[C@H](C)[C@@H](O[C@H]2C[C@@](C)(OC)[C@@H](O)[C@H](C)O2)[C@H](C)[C@@H](O[C@@H]2O[C@H](C)C[C@H](N(C)C)[C@H]2O)[C@](C)(OC)C[C@@H](C)C(=O)[C@H](C)[C@@H](O)[C@]1(C)O [CLR, clarithromycin] | 2 (≈ 1.5 µg/mL) | 0.4 (≈ 0.299 µg/mL) | 0.6 (≈ 0.449 µg/mL) | 3.2 (≈ 2.39 µg/mL) | 3.2 (≈ 2.39 µg/mL) | 0.8 (≈ 0.598 µg/mL) | 3.2 (≈ 2.39 µg/mL) | 3.2 (≈ 2.39 µg/mL) | 1.2 (≈ 0.898 µg/mL) | 3.2 (≈ 2.39 µg/mL) | 0.8 (≈ 0.598 µg/mL) | 0.2 (≈ 0.15 µg/mL) | 0.2 (≈ 0.15 µg/mL) | 0.3 (≈ 0.224 µg/mL) | 0.4 (≈ 0.299 µg/mL) | 2 (≈ 1.5 µg/mL) | 2 (≈ 1.5 µg/mL) | 1 (≈ 0.748 µg/mL) | 1 (≈ 0.748 µg/mL) | MIC [1]: 2 µM (≈ 1.5 µg/mL); effect on supercoiling activity [20]: did not affect the activity of the enzyme; CLR susceptibility [21]: Resistant; CLR susceptibility [22]: Resistant; CLR susceptibility [23]: Sensitive; CLR susceptibility [24]: Sensitive; CLR susceptibility [25]: Sensitive; CLR susceptibility [26]: Resistant; CLR susceptibility [27]: Resistant; CLR susceptibility [28]: Resistant; CLR susceptibility [29]: Sensitive; CLR susceptibility [30]: Resistant; CLR susceptibility [31]: Resistant; CLR susceptibility [32]: Sensitive; CLR susceptibility [33]: Sensitive
2 | COc1c(N2C[C@@H]3CCCN[C@@H]3C2)c(F)cc2c(=O)c(C(=O)O)cn(C3CC3)c12 [MXF, moxifloxacin] | 3 (≈ 1.2 µg/mL) | 4 (≈ 1.61 µg/mL) | 3 (≈ 1.2 µg/mL) | 2.5 (≈ 1 µg/mL) | 1.5 (≈ 0.602 µg/mL) | 3 (≈ 1.2 µg/mL) | 1.5 (≈ 0.602 µg/mL) | 1.5 (≈ 0.602 µg/mL) | 6.3 (≈ 2.53 µg/mL) | 1.5 (≈ 0.602 µg/mL) | 2.5 (≈ 1 µg/mL) | 6.3 (≈ 2.53 µg/mL) | 3.2 (≈ 1.28 µg/mL) | 30 (≈ 12 µg/mL) | 2 (≈ 0.803 µg/mL) | 2 (≈ 0.803 µg/mL) | 100 (≈ 40.1 µg/mL) | 80 (≈ 32.1 µg/mL) | 80 (≈ 32.1 µg/mL) | MIC [2]: 4 µM (≈ 1.61 µg/mL)
